Assay type in all cases: cell-based
In assay [1] the target is T1, human TLR7 (Homo sapiens, UniProt Q9NYK1).
T1 construct: host or cells: HEK-Blue cells (HEK293-derived reporter line)
T1 sequence (Q9NYK1 27-1049): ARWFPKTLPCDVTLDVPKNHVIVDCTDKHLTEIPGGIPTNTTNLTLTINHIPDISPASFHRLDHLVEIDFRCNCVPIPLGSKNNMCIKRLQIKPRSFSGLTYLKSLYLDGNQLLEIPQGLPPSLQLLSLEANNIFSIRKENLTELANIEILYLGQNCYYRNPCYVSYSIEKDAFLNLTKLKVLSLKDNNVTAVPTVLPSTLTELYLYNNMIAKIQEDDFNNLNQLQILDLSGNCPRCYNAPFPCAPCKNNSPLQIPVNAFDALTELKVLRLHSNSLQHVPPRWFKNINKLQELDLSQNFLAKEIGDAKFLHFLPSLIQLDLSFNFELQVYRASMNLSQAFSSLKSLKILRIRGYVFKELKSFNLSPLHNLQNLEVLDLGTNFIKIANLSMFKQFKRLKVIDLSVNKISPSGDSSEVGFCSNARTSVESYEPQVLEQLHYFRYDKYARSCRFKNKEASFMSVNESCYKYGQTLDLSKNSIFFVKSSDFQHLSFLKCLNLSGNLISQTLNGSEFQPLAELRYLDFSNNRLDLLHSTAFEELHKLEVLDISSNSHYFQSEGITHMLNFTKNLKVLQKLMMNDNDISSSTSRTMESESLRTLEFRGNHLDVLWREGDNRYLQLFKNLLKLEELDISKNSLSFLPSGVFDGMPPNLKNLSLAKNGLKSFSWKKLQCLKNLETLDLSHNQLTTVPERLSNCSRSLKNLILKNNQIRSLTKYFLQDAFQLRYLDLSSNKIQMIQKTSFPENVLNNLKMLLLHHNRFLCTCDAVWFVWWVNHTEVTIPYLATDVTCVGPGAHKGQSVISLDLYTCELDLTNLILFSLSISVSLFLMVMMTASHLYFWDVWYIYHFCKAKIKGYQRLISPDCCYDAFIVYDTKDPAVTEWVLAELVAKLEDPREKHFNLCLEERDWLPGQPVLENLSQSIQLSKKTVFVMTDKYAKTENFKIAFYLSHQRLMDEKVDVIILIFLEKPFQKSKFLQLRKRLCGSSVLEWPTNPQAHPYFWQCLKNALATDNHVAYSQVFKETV
The experiment in a line: TLR7 inhibition reporter assay (HEK-Blue cells, secreted embryonic alkaline phosphatase reporter). To be noted: HEK-Blue cells overexpressing human TLR7, stimulated with gardiquimod 7.5 μM; read-out: TLR 7 IC50. The essentials:
(§1)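 Read-out is SEAP colour from HEK-Blue Detection medium after 22 h at 37 °C, converted to percent inhibition between agonist-plus-DMSO and reference-inhibitor wells. Receptor-overexpressing HEK-Blue cells received compound over 0.05 nM–50 μM for 30 min before agonist: gardiquimod 7.5 μM for TLR7, R848 15.9 μM for TLR8, ODN2006 5 nM for TLR9.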

For assay [2], the target named is T2, human TLR9 (Homo sapiens, UniProt Q9NR96).
T2 construct: host or cells: HEK-Blue cells (HEK293-derived reporter line)
T2 sequence (Q9NR96 26-1032): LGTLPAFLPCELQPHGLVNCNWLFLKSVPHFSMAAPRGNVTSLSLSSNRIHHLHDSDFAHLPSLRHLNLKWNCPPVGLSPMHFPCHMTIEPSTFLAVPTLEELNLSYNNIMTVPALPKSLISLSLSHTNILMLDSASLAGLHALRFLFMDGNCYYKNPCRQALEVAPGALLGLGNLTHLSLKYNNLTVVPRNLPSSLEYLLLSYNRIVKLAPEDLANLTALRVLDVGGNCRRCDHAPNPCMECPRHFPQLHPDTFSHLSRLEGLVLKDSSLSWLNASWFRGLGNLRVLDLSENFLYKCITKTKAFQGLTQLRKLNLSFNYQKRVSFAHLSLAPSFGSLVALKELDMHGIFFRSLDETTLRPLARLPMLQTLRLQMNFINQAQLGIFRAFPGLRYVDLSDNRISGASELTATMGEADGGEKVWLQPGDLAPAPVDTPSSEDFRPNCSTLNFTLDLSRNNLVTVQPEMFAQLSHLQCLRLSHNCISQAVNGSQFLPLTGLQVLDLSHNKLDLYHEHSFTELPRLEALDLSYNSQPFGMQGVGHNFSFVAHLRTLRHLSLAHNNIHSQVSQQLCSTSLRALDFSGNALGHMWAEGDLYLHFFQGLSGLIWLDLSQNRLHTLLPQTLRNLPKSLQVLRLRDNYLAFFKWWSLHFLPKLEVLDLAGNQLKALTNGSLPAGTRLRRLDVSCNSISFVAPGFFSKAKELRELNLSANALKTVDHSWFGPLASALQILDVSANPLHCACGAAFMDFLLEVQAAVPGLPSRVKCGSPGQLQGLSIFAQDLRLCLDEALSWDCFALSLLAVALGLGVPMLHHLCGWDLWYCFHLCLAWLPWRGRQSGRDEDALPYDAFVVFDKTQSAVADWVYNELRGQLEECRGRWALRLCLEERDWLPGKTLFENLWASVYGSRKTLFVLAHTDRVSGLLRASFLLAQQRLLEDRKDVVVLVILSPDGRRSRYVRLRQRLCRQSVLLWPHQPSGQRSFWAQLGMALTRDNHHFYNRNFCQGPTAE
The experiment in a line: TLR9 inhibition reporter assay (HEK-Blue cells, secreted embryonic alkaline phosphatase reporter). The essentials: as §1
For orientation: In a reporter assay the amount or activity of a reporter protein is the signal.

The target in assay [3] is T3, human TLR8 (Homo sapiens, UniProt Q9NR97).
T3 construct: host or cells: HEK-Blue cells (HEK293-derived reporter line)
T3 sequence (Q9NR97 27-1041): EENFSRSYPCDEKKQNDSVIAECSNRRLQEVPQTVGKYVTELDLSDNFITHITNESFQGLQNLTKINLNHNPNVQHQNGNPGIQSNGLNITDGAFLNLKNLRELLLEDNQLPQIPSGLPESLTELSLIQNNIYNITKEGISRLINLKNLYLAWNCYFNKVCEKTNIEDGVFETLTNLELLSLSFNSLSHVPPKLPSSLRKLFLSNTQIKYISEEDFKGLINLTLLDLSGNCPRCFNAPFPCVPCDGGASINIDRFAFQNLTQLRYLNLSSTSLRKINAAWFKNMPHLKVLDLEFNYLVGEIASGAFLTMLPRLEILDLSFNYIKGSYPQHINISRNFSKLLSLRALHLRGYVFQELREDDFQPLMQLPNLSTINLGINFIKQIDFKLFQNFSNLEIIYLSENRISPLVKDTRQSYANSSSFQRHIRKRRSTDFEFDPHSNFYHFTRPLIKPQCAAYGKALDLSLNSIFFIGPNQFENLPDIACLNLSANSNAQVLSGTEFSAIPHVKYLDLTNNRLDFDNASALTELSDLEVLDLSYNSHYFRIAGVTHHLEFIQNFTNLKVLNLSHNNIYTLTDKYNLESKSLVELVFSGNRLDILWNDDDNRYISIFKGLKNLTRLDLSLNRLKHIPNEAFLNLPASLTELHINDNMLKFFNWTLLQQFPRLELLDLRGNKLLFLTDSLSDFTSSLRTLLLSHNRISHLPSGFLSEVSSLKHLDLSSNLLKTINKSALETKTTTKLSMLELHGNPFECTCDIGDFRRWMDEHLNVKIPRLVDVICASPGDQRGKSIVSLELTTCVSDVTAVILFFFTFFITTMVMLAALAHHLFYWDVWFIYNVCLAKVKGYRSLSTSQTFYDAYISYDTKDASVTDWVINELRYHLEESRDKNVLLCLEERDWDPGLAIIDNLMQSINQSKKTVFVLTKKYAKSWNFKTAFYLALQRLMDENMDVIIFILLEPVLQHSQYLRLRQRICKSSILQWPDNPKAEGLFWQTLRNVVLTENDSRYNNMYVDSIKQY
The experiment in a line: TLR8 inhibition reporter assay (HEK-Blue cells, secreted embryonic alkaline phosphatase reporter). The note with it: HEK-Blue cells overexpressing human TLR8, stimulated with R848 15.9 μM; read-out: TLR 8 IC50. The essentials:
as §1

[4] abbreviates: HEK-Blue cells overexpressing human TLR9, stimulated with ODN2006 5 nM, read-out: TLR 9 IC50.
Setting [5] is: HEK-Blue human TLR9 reporter cells.
Setting [6] is: HEK-Blue cells overexpressing human TLR9, stimulated with ODN2006 5 nM, 22 hour incubation, reporter readout.

pIC50: −log10 of the molar value. Read-outs that look alike come from different tables or passages of the source.

As usually defined, the pIC50 is −log10 of the IC50, conventionally taken in molar units. With `Cc1cc(C2CCN(C3CC4CCC(C3)N4C(C)C)CC2)cc2c1nc(-c1ccc(S(C)(=O)=O)c(F)c1)n2C` (stereo not shown) [Example 344, 2-(3-fluoro-4-(methylsulfonyl)phenyl)-6-(1-(8-isopropyl-8-azabicyclo[3.2.1]octan-3-yl)piperidin-4-yl)-1,4-dimethyl-1H-benzo[d]imidazole], the negative logarithm of the IC50 (pIC50) was 4.97 in assay [1], 7.91 in assay [2] (setting [4]), 6.92 in assay [2] (setting [5]) and less than 4.30 in assay [3].

On to `COCCN1CCCC(N2CCC(c3cc(C)c4nc(-c5ccc(S(C)(=O)=O)cc5)n(C)c4c3)CC2)CC1` (single isomer, unassigned) [Example 309, 6-(1-(1-(2-methoxyethyl)azepan-4-yl)piperidin-4-yl)-1,4-dimethyl-2-(4-(methylsulfonyl)phenyl)-1H-benzo[d]imidazole], for which the pIC50 is 5.72 in assay [1], 7.47 in assay [2] (setting [4]), 7.47 in assay [2] (setting [5]) and less than 4.30 in assay [3].

Regarding `Cn1c(-c2ccc(S(C)(=O)=O)cc2)nc2cc(C3CCN(C4CC5CCC(C4)N5C4COC4)CC3)cc(F)c21` (single isomer, unassigned) [Example 213, 7-fluoro-1-methyl-2-(4-(methylsulfonyl)phenyl)-5-(1-(8-(oxetan-3-yl)-8-azabicyclo[3.2.1]octan-3-yl)piperidin-4-yl)-1H-benzo[d]imidazole], the negative logarithm of the IC50 (pIC50) in assay [1] is less than 4.30; in assay [2], 6.47; in assay [2] (setting [4]) it was 6.47; in assay [3], less than 4.30.

Turning to `CC(C)CN1CCCC(N2CCC(c3ccc4nc(-c5ccc(S(C)(=O)=O)cc5)n(C)c4c3F)CC2)CC1` (stereo not shown) [Example 310, 7-fluoro-6-(1-(1-isobutylazepan-4-yl)piperidin-4-yl)-1-methyl-2-(4-(methylsulfonyl)phenyl)-1H-benzo[d]imidazole], the pIC50 in assay [1] was less than 4.30; in assay [2] (setting [4]), 7.34; in assay [2] (setting [5]), 7.33; in assay [3] it was less than 4.30.

For `CC(C)N1C2CCC1CC(N1CCC(c3cc4nc(-c5ccc(S(C)(=O)=O)cc5)n(C)c4cc3F)CC1)C2` (single isomer, unassigned) [Example 100, 6-fluoro-5-(1-(8-isopropyl-8-azabicyclo[3.2.1]octan-3-yl)piperidin-4-yl)-1-methyl-2-(4-(methylsulfonyl)phenyl)-1H-benzo[d]imidazole], the figures for the pIC50 in assay [1], in assay [2] (setting [6]) and in assay [3] were 4.40, 7.21 and less than 4.30, respectively.

Take `COc1ccc(-c2nc3c(C)cc(C4CCN(C5CCN(C(=O)C(C)C)CC5)CC4)cc3[nH]2)cc1OC` [Example 14, 1-(4-(2-(3,4-dimethoxyphenyl)-4-methyl-1H-benzo[d]imidazol-6-yl)-[1,4′-bipiperidin]-1′-yl)-2-methylpropan-1-one]: the pIC50 was less than 4.30 in assay [1], 6.29 in assay [2] (setting [6]), 6.29 in assay [2] (setting [4]) and less than 4.30 in assay [3].

For the molecule `Cc1cc(-c2ccc(N3CCN(C4CCC4)CC3)cc2)cc2c1nc(-c1ccc(S(C)(=O)=O)cc1)n2C` [Example 174, 6-(4-(4-cyclobutylpiperazin-1-yl)phenyl)-1,4-dimethyl-2-(4-(methylsulfonyl)phenyl)-1H-benzo[d]imidazole], the negative logarithm of the IC50 (pIC50) was less than 4.30 in assay [1], 6.32 in assay [2], 6.32 in assay [2] (setting [4]) and less than 4.30 in assay [3].

Regarding `Cc1cc(-c2cc(F)c(CN3CCC(N4CCCC4)CC3)c(F)c2)cc2c1nc(-c1ccc(S(C)(=O)=O)cc1)n2C` [Example 391, 6-(3,5-difluoro-4-((4-(pyrrolidin-1-yl)piperidin-1-yl)methyl)phenyl)-1,4-dimethyl-2-(4-(methylsulfonyl)phenyl)-1H-benzo[d]imidazole], the negative logarithm of the IC50 (pIC50) in assay [1] was 5.68; in assay [2] (setting [6]), 6.74; in assay [2] (setting [4]), 6.75; in assay [3], 4.93.

The values are drawn from patent publication US12492188B2, “1H-benzo[D]imidazole derivatives as TLR9 inhibitors for the treatment of fibrosis” (BRISTOL-MYERS SQUIBB COMPANY, priority 2020, dated 2025).
